What all share (type): cell-based
For assay [1], the target named is EGFR (A767_dupASV) expressing Ba/F3 stable cell line (Homo sapiens, UniProt P00533, DUP767-769, cells depend on it). Nature of the assay: Cellular proliferation (Alamar Blue) assay, EGFR A767_dupASV Ba/F3. To be noted: 72 hr, read-out: A767 IC50. On the procedure: (§1) • 1. EGFR(D770_N771insSVD) expressing Ba/F3 stable cell line • 2. EGFR (A767_dupASV) expressing Ba/F3 stable cell line • 3. A431 cells • 4. EGFR (H773insNPH) expressing Ba/F3 stable cell line • 5. HER2 (A775_G776insYVMA) expressing Ba/F3 stable cell line Assay Procedure: • 1. Seed cells at 5000 for A431 and 15,000 cells for Ba/F3 in 100 μL/well in complete media (for A431: DMEM with […] and for Ba/F3 cells: RPMI with 10% FBS) in 96-well tissue culture plate. Leave outer wells without cells for background measurements. Incubate at 37 degree Celsius in […] humidified incubator for 16-18 hours. • 2. Add 0.025 ml of 5× concentration compound dilution or DMSO control. Final compound concentration range is 10-0.0005 μM prepared in 3-fold serial dilutions. Incubate for 72 hr at 37 degree Celsius in […] humidified incubator. • 3. Add 0.0125 ml Alamar Blue™ reagent to each well with multi-channel pipette and tap gently on each side of the plate to mix. Incubate for 3 hours at 37 degree Celsius in 5% CO2 humidified incubator. • 4. […] Data analysis was performed using XLfit 5.5.0.5.

Assay [2] has as its target EGFR(D770_N771insSVD) expressing Ba/F3 stable cell line (Homo sapiens, UniProt P00533, DUP768-770, cells depend on it). Nature of the assay: Cellular proliferation (Alamar Blue) assay, EGFR D770_N771insSVD Ba/F3. As to conditions: 72 hr, read-out: D770 IC50. On the procedure:
as §1

Assay [3] deals with A431 cells. Nature of the assay: Cellular proliferation (Alamar Blue) assay, A431. How it is done:
as §1

Setting [4] is: Homo sapiens, A-431; A431 cells, 72 hr, Alamar Blue; read-out: A431 IC50.
Setting [5] is: Homo sapiens, A-431; A431 cells, Alamar Blue, 72 hr; read-out: A431 IC50.

These results are taken from patent US12686673B2 (Blueprint Medicines Corporation, priority 2020, dated 2026).

The structures appear in SMILES notation. Counter-ions that a name gives are not always drawn. Like-named read-outs stand apart in the source and are kept apart here.

Chain of EGFR(D770_N771insSVD) expressing Ba/F3 stable cell line (P00533 with tags, fused parts or gaps DUP768-770): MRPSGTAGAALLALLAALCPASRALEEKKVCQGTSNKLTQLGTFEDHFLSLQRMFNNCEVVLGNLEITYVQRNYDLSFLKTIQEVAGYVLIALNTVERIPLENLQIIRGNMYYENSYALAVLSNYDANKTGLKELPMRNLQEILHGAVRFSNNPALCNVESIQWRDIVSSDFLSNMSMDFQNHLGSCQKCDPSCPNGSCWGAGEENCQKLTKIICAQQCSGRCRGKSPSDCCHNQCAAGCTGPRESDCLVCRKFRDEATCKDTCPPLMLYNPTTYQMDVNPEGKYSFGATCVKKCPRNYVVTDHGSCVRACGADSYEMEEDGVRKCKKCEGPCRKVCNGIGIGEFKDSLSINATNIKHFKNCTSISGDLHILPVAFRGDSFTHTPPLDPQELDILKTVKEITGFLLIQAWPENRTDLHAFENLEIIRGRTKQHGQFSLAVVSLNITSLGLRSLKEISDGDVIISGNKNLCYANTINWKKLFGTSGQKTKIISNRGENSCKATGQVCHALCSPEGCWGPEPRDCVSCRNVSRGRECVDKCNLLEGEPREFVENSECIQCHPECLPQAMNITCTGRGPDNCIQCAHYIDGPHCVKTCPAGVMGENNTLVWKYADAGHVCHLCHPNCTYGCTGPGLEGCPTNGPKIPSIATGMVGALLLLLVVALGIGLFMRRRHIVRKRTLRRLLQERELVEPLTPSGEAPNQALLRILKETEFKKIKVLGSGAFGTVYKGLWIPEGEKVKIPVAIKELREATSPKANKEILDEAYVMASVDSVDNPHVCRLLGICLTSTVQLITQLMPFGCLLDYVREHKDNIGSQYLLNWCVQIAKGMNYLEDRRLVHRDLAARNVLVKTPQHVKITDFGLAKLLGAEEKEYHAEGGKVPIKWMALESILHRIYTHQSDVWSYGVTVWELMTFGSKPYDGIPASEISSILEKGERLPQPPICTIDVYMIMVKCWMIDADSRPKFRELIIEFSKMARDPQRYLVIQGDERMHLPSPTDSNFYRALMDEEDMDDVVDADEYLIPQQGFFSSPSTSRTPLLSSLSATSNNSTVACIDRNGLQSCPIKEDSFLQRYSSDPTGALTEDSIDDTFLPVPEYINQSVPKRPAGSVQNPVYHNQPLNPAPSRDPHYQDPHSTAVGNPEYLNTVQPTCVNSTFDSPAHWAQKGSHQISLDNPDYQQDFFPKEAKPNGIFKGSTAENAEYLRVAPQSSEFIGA
Chain of EGFR (A767_dupASV) expressing Ba/F3 stable cell line (P00533 with tags, fused parts or gaps DUP767-769): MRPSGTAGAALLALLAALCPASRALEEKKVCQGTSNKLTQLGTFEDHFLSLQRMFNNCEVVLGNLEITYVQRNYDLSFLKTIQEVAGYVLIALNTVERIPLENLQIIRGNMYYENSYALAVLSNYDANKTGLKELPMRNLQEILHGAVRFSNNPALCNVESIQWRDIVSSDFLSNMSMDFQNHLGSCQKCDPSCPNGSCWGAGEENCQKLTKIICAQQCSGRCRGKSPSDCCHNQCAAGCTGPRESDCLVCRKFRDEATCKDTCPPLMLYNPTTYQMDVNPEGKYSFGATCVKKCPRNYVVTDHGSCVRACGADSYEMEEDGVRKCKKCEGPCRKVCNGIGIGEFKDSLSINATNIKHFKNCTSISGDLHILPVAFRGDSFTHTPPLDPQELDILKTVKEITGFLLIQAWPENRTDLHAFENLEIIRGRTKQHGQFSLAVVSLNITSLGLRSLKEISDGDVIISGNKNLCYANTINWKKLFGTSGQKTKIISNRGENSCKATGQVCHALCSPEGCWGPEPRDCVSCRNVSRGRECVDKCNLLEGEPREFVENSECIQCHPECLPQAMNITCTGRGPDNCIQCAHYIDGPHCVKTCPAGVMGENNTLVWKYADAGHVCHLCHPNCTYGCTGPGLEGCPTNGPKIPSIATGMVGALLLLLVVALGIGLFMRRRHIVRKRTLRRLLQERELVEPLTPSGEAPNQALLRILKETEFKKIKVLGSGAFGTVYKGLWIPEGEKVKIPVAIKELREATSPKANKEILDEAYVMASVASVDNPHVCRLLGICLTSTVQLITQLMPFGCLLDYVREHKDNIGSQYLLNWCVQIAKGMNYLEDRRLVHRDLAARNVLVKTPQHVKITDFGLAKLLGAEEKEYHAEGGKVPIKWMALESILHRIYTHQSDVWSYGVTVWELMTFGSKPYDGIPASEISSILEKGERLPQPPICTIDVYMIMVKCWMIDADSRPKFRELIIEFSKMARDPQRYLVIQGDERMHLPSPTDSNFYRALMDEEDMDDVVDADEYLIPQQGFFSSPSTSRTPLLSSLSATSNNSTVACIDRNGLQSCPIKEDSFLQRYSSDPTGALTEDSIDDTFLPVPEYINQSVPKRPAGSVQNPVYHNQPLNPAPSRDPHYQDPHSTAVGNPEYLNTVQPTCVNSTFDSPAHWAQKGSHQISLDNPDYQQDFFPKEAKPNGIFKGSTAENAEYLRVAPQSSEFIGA

In the case of `C=CC(=O)Nc1ccc(F)c(Nc2nc(Nc3cnoc3)ncc2-c2ccc(C(F)(F)F)cc2)c1` [Compound 225, N-[4-fluoro-3-({2-[(1,2-oxazol-4-yl)amino]-5-[4-(trifluoromethyl)phenyl]pyrimidin-4-yl}amino)phenyl]prop-2-enamide], the GI50 came out at 2.69 µM in assay [1] and 1.24 µM in assay [2]. Besides, in assay [3] (setting [4]), the half-maximal inhibitory concentration (IC50) came out at 0.637 µM.
Take `C=CC(=O)Nc1cccc(Oc2nc(Nc3cnn(C)c3)ncc2C2=CCN(C)CC2)c1` [Compound 190, N-(3-((5-(1-methyl-1,2,3,6-tetrahydropyridin-4-yl)-2-((1-methyl-1H-pyrazol-4-yl)amino)pyrimidin-4-yl)oxy)phenyl)acrylamide]: the GI50 in assay [1] is 9.04 µM; in assay [2], 8.86 µM. Also, in assay [3] (setting [5]), the IC50 came out at 6.76 µM.
Taken in the same sequence, the figures for `C=CC(=O)Nc1ccc(F)c(Nc2nc(Nc3cnn(C)c3)ncc2-c2ccccc2C(F)(F)F)c1` [Compound 65, N-(4-fluoro-3-((2-((1-methyl-1H-pyrazol-4-yl)amino)-5-(2-(trifluoromethyl)phenyl)pyrimidin-4-yl)amino)phenyl)acrylamide] were 2.74 µM, 1 µM and 1.94 µM.
Taken in the same sequence, the figures for `C=CC(=O)Nc1ccc(F)c(Nc2nc(Nc3csc(Cl)c3)ncc2-c2ccc(C(F)(F)F)cc2)c1` [Compound 41, N-(3-((2-((5-chlorothiophen-3-yl)amino)-5-(4-(trifluoromethyl)phenyl)pyrimidin-4-yl)amino)-4-fluorophenyl)acrylamide trifluoroacetate] were greater than 10 µM, 1.66 µM and 7.33 µM.
Turning to `C=CC(=O)Nc1ccc(F)c(Nc2nc(Nc3nccs3)ncc2-c2ccc(C(F)(F)F)cc2)c1` [Compound 215, N-(4-fluoro-3-((2-(thiazol-2-ylamino)-5-(4-(trifluoromethyl)phenyl)pyrimidin-4-yl)amino)phenyl)acrylamide], the figures for the GI50 in assay [1] and in assay [2] were greater than 10 µM and 0.991 µM, respectively. The IC50 in assay [3] (setting [4]) was 2.27 µM.
For the molecule `C=CC(=O)Nc1cccc2c1ccn2-c1nc(Nc2cnn(C)c2)ncc1-c1ccc(C(F)(F)F)cc1` [Compound 81, N-(1-(2-((1-methyl-1H-pyrazol-4-yl)amino)-5-(4-(trifluoromethyl)phenyl)pyrimidin-4-yl)-1H-indol-4-yl)acrylamide], the GI50 in assay [1] and in assay [2] was greater than 10 µM each time.
Take `C=CC(=O)Nc1ccc(F)c(Nc2nc(Nc3cnn(C)c3)ncc2-c2ccc(N(C)C)nc2)c1` [Compound 107, N-(3-((5-(6-(dimethylamino)pyridin-3-yl)-2-((1-methyl-1H-pyrazol-4-yl)amino)pyrimidin-4-yl)amino)-4-fluorophenyl)acrylamide]: the GI50 in assay [1] and in assay [2] was greater than 10 µM each time.
For `C=CC(=O)Nc1ccc(F)c(N(c2ccccc2)c2nc(Nc3cnn(C)c3)ncc2Cl)c1` [Compound 20, N-(3-((5-chloro-2-((1-methyl-1H-pyrazol-4-yl)amino)pyrimidin-4-yl)(phenyl)amino)-4-fluorophenyl)acrylamide], the GI50 in assay [2] was determined as 2.41 µM. For the same molecule, the IC50 in assay [3] (setting [5]) was greater than 10 µM.
With `C=CC(=O)Nc1ccc(F)c(Nc2nc(Nc3cnn(C)c3)ncc2-c2cccc3cc[nH]c23)c1` [Compound 265, N-(3-((5-(1H-indol-7-yl)-2-((1-methyl-1H-pyrazol-4-yl)amino)pyrimidin-4-yl)amino)-4-fluorophenyl)acrylamide], in assay [3] (setting [4]), the IC50 was 4.89 µM.
In the case of `C=CC(=O)Nc1ccc(F)c(Nc2nc(Nc3cc(COC)n(C)n3)ncc2Cl)c1` [Compound 21, N-(3-((5-chloro-2-((5-(methoxymethyl)-1-methyl-1H-pyrazol-3-yl)amino)pyrimidin-4-yl)amino)-4-fluorophenyl)acrylamide], in assay [2], the GI50 was 4.76 µM. In assay [3] (setting [5]), the IC50 was greater than 10 µM.
`C=CC(=O)Nc1ccc(F)c(Nc2nc(Nc3cnn(C)c3)ncc2-c2ccccc2-c2ccccc2)c1` [Compound 263, N-(3-((5-([1,1′-biphenyl]-2-yl)-2-((1-methyl-1H-pyrazol-4-yl)amino)pyrimidin-4-yl)amino)-4-fluorophenyl)acrylamide]: in assay [3] (setting [4]), the IC50 was found to be 6.23 µM.
